Assay results from PubChem BioAssay (NCI).
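Abbreviation: GI50, concentration required for 50% inhibition of growth. TGI denotes the concentration required for complete inhibition of growth.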

How the values were obtained:
Assay in all cases: NCI anticancer screen, dose series, 384-well format
786-0 renal = system: 786-0 renal
A498 renal = system: A498 renal
A549 NSCLC = system: A549 NSCLC
ACHN renal = system: ACHN renal
BT-549 breast = system: BT-549 breast
CAKI-1 renal = system: CAKI-1 renal
CCRF-CEM leukemia = system: CCRF-CEM leukemia
COLO 205 colon = system: COLO 205 colon
DU-145 prostate = system: DU-145 prostate
EKVX NSCLC = system: EKVX NSCLC
HCC-2998 colon = system: HCC-2998 colon
HCT-116 colon = system: HCT-116 colon
HCT-15 colon = system: HCT-15 colon
HL-60(TB) leukemia = system: HL-60(TB) leukemia
HOP-62 NSCLC = system: HOP-62 NSCLC
HOP-92 NSCLC = system: HOP-92 NSCLC
HS 578T breast = system: HS 578T breast
HT29 colon = system: HT29 colon
IGROV1 ovarian = system: IGROV1 ovarian
K-562 leukemia = system: K-562 leukemia
KM12 colon = system: KM12 colon
LOX IMVI melanoma = system: LOX IMVI melanoma
M14 melanoma = system: M14 melanoma
MALME-3M melanoma = system: MALME-3M melanoma
MCF7 breast = system: MCF7 breast
MDA-MB-231 breast = system: MDA-MB-231 breast
MDA-MB-435 melanoma = system: MDA-MB-435 melanoma
MDA-MB-468 breast = system: MDA-MB-468 breast
MOLT-4 leukemia = system: MOLT-4 leukemia
NCI-H226 lung = system: NCI-H226 lung
NCI-H23 lung = system: NCI-H23 lung
NCI-H322M lung = system: NCI-H322M lung
NCI-H460 NSCLC = system: NCI-H460 NSCLC
NCI-H522 lung = system: NCI-H522 lung
NCI/ADR-RES ovarian = system: NCI/ADR-RES ovarian
OVCAR-3 ovarian = system: OVCAR-3 ovarian
OVCAR-4 ovarian = system: OVCAR-4 ovarian
OVCAR-8 ovarian = system: OVCAR-8 ovarian
PC-3 prostate = system: PC-3 prostate
RPMI-8226 leukemia = system: RPMI-8226 leukemia
RXF 393 renal = system: RXF 393 renal
SF-268 CNS = system: SF-268 CNS
SF-295 CNS = system: SF-295 CNS
SF-539 CNS = system: SF-539 CNS
SK-MEL-28 melanoma = system: SK-MEL-28 melanoma
SK-MEL-5 melanoma = system: SK-MEL-5 melanoma
SK-OV-3 ovarian = system: SK-OV-3 ovarian
SN12C renal = system: SN12C renal
SNB-19 CNS = system: SNB-19 CNS
SNB-75 CNS = system: SNB-75 CNS
SR leukemia = system: SR leukemia
SW-620 colon = system: SW-620 colon
T-47D breast = system: T-47D breast
TK-10 renal = system: TK-10 renal
U251 glioblastoma = system: U251 glioblastoma
UACC-257 melanoma = system: UACC-257 melanoma
UACC-62 melanoma = system: UACC-62 melanoma
UO-31 renal = system: UO-31 renal

In the case of `Nc1ncccc1-c1nc2ccc(-c3ccccc3)nc2n1-c1ccc(C2(N)CCC2)cc1`, the GI50 ([…]-0 renal) is reported as 1040 nM, the TGI (786-0 renal) is reported as 2220 nM and the GI50 (A498 renal) is reported as 234 nM. The TGI (A498 renal) was 1310 nM, the GI50 (A549 NSCLC) was 1760 nM and the TGI (A549 NSCLC) was 4170 nM. The GI50 (ACHN renal) was 1720 nM, the TGI (ACHN renal) was 4040 nM and the GI50 (BT-549 breast) was 1050 nM. For the same compound, the TGI (BT-549 breast) was 2250 nM, the GI50 (CAKI-1 renal) was 1050 nM and the TGI (CAKI-1 renal) was 2270 nM. For the same compound, the GI50 (CCRF-CEM leukemia) was 285 nM, the TGI (CCRF-CEM leukemia) was 1760 nM and the GI50 (COLO 205 colon) was 1030 nM. For the same compound, the TGI (COLO 205 colon) was 2210 nM, the GI50 (DU-145 prostate) was 2420 nM and the TGI (DU-145 prostate) was 8300 nM. It also gave a GI50 (EKVX NSCLC) of 1640 nM, a TGI (EKVX NSCLC) of 5080 nM and a GI50 (HCC-2998 colon) of 1350 nM. For the same compound, the TGI (HCC-2998 colon) was 2640 nM, the GI50 (HCT-116 colon) was 1500 nM and the TGI (HCT-116 colon) was 2830 nM. The GI50 (HCT-15 colon) was 1240 nM, the TGI (HCT-15 colon) was 2490 nM and the GI50 (HL-60(TB) leukemia) was 1820 nM. It also gave a TGI (HL-60(TB) leukemia) of 3210 nM, a GI50 (HOP-62 NSCLC) of 1610 nM and a TGI (HOP-62 NSCLC) of 3020 nM. For the same compound, the GI50 (HOP-92 NSCLC) was 1400 nM, the TGI (HOP-92 NSCLC) was 3120 nM and the GI50 (HS 578T breast) was 1030 nM. The TGI (HS 578T breast) was 2200 nM, the GI50 (HT29 colon) was 1100 nM and the TGI (HT29 colon) was 2340 nM. The GI50 (IGROV1 ovarian) was 187 nM, the TGI (IGROV1 ovarian) was 1810 nM and the GI50 (K-562 leukemia) was 1600 nM. The TGI (K-562 leukemia) was 2950 nM, the GI50 (KM12 colon) was 1540 nM and the TGI (KM12 colon) was 3270 nM. The GI50 (LOX IMVI melanoma) was 1740 nM, the TGI (LOX IMVI melanoma) was 3110 nM and the GI50 (M14 melanoma) was 1370 nM. The TGI (M14 melanoma) was 2660 nM, the GI50 (MALME-3M melanoma) was 464 nM and the TGI (MALME-3M melanoma) was 1910 nM. It also gave a GI50 (MCF7 breast) of 96.3 nM, a TGI (MCF7 breast) of 1540 nM and a GI50 (MDA-MB-231 breast) of 1430 nM. It also gave a TGI (MDA-MB-231 breast) of 2790 nM, a GI50 (MDA-MB-435 melanoma) of 1750 nM and a TGI (MDA-MB-435 melanoma) of 3130 nM. It also gave a GI50 (MDA-MB-468 breast) of 226 nM, a TGI (MDA-MB-468 breast) of 1420 nM and a GI50 (MOLT-4 leukemia) of 154 nM. The TGI (MOLT-4 leukemia) was 1210 nM, the GI50 (NCI-H226 lung) was 1420 nM and the TGI (NCI-H226 lung) was 3340 nM. For the same compound, the GI50 (NCI-H23 lung) was 2400 nM, the TGI (NCI-H23 lung) was 8070 nM and the GI50 (NCI-H322M lung) was 1380 nM. It also gave a TGI (NCI-H322M lung) of 2960 nM, a GI50 (NCI-H460 NSCLC) of 359 nM and a TGI (NCI-H460 NSCLC) of 1820 nM. For the same compound, the GI50 (NCI-H522 lung) was 1560 nM, the TGI (NCI-H522 lung) was 2900 nM and the GI50 (NCI/ADR-RES ovarian) was 1950 nM. It also gave a TGI (NCI/ADR-RES ovarian) of 4120 nM, a GI50 (OVCAR-3 ovarian) of 476 nM and a TGI (OVCAR-3 ovarian) of 2050 nM. It also gave a GI50 (OVCAR-4 ovarian) of 3620 nM, a TGI (OVCAR-4 ovarian) of 12100 nM and a GI50 (OVCAR-8 ovarian) of 1430 nM. For the same compound, the TGI (OVCAR-8 ovarian) was 2750 nM, the GI50 (PC-3 prostate) was 139 nM and the TGI (PC-3 prostate) was 1630 nM. For the same compound, the GI50 (RPMI-8226 leukemia) was 1420 nM, the TGI (RPMI-8226 leukemia) was 2720 nM and the GI50 (RXF 393 renal) was 582 nM. For the same compound, the TGI (RXF 393 renal) was 1910 nM, the GI50 (SF-268 CNS) was 1590 nM and the TGI (SF-268 CNS) was 2960 nM. It also gave a GI50 (SF-295 CNS) of 1050 nM, a TGI (SF-295 CNS) of 2230 nM and a GI50 (SF-539 CNS) of 1160 nM. For the same compound, the TGI (SF-539 CNS) was 2380 nM, the GI50 (SK-MEL-28 melanoma) was 1220 nM and the TGI (SK-MEL-28 melanoma) was 2460 nM. It also gave a GI50 (SK-MEL-5 melanoma) of 1450 nM, a TGI (SK-MEL-5 melanoma) of 2770 nM and a GI50 (SK-OV-3 ovarian) of 547 nM. It also gave a TGI (SK-OV-3 ovarian) of 2190 nM, a GI50 (SN12C renal) of 2390 nM and a TGI (SN12C renal) of 14400 nM. The GI50 (SNB-19 CNS) was 1760 nM, the TGI (SNB-19 CNS) was 3170 nM and the GI50 (SNB-75 CNS) was 597 nM. It also gave a TGI (SNB-75 CNS) of 2020 nM, a GI50 (SR leukemia) of 96.6 nM and a TGI (SR leukemia) of 1260 nM. For the same compound, the GI50 (SW-620 colon) was 1790 nM, the TGI (SW-620 colon) was 3180 nM and the GI50 (T-47D breast) was 35.5 nM. The TGI (T-47D breast) was 1040 nM, the GI50 (TK-10 renal) was 1240 nM and the TGI (TK-10 renal) was 2600 nM. It also gave a GI50 (U251 glioblastoma) of 1460 nM, a TGI (U251 glioblastoma) of 2770 nM and a GI50 (UACC-257 melanoma) of 1460 nM. For the same compound, the TGI (UACC-257 melanoma) was 2770 nM, the GI50 (UACC-62 melanoma) was 1160 nM and the TGI (UACC-62 melanoma) was 2390 nM. The GI50 (UO-31 renal) was 1320 nM and the TGI (UO-31 renal) was 2600 nM.
